Measurements as given in patent US10246456B2, “IRAK4 inhibiting agents” (BIOGEN MA INC., priority 2014, dated 2019).

What was measured:
IRAK4 = IRAK4 (Homo sapiens (Human), UniProt Q9NWZ3); assay: IRAK-4 AlphaScreen biochemical kinase assay; conditions: 1 nM IRAK4, 1 mM ATP, 3.5 h at RT
Procedure, shortened: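 AlphaScreen read-out: streptavidin beads bind the biotinylated peptide and protein A beads bind the anti-phosphothreonine antibody, so energy transfer reports phosphorylation of the peptide. The kinase is human IRAK-4.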

IL-6 in A549 cells = assay: Cell-based IL-6 ELISA assay in IL-1beta stimulated A549 cells; conditions: 2 ng/ml human IL-1beta overnight
Experimental: The cell-based assays is based on IL-6 ELISA quantification. Briefly, A549 cells are cultured in DMEM with 10% FBS medium. When cells reach 80% confluence they are trypsin treated and seeded 180 ul/well in 96-well plate at 2.5×10^4 cells/well. Then, 20 ul of compound serial dilutions (starting at 10 uM, 10 points) are added to the cell plate; incubate for 30 min at 37 C and stimulated with 2 ng/ml human IL-1beta 37 C, 5% CO2 overnight. The next day 100 ul of cell supernatant per well are analyzed on a Human IL-6 Quantikine ELISA kit from R&D Systems.

IRAK4, sequence (Q9NWZ3 whole entry, species assumed): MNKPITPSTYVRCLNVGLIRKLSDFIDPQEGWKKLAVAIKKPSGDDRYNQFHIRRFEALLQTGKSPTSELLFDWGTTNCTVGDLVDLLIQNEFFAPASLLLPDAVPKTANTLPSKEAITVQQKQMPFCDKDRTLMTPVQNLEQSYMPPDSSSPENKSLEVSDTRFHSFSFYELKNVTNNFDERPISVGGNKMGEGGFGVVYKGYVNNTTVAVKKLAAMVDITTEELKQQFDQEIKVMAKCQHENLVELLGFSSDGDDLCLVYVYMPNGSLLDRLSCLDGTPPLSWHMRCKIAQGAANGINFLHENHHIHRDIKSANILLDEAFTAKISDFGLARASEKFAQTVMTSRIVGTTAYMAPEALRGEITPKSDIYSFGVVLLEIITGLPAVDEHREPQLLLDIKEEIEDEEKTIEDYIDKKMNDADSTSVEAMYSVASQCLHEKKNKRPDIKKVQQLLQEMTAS

IC50 (IRAK4) [nM]	EC50 (IL-6 in A549 cells) [nM]	SMILES
–	≤ 1000	CCC[C@H](N)c1cccc(-c2cc(N3CCCCC3)c3cnn(-c4cccc(CO)n4)c3c2)n1 [Example 324, (S)-(6-(6-(6-(1-aminobutyl)pyridin-2-yl)-4-(piperidin-1-yl)-1H-indazol-1-yl)pyridin-2-yl)methanol]
< 100	≤ 1000	CCC[C@H](N)c1cccc(-c2cc(N3CCC(O)C3)c3cnn(-c4cccc(CO)n4)c3c2)n1 (stereo partly drawn) [Example 325, 1-(6-(6-((S)-1-aminobutyl)pyridin-2-yl)-1-(6-(hydroxymethyl)pyridin-2-yl)-1H-indazol-4-yl)pyrrolidin-3-ol]
< 100	≤ 1000	CCC[C@H](N)c1cccc(-c2cc(N3CCCC3CO)c3cnn(-c4cccc(CO)n4)c3c2)n1 (stereo partly drawn) [Example 326, (1-(6-(6-((S)-1-aminobutyl)pyridin-2-yl)-1-(6-(hydroxymethyl)pyridin-2-yl)-1H-indazol-4-yl)pyrrolidin-2-yl)methanol]
–	≤ 1000	CCC[C@H](N)c1cccc(-c2cc(N3CCOCC3)c3cnn(-c4cccc(CO)n4)c3c2)n1 [Example 339, (S)-(6-(6-(6-(1-aminobutyl)pyridin-2-yl)-4-morpholino-1H-indazol-1-yl)pyridin-2-yl)methanol]
–	≤ 1000	CCC[C@H](N)c1cccc(-c2cc(N3CCC3)c3cnn(-c4cccc(CO)n4)c3c2)n1 [Example 345, (S)-(6-(6-(6-(1-aminobutyl)pyridin-2-yl)-4-(azetidin-1-yl)-1H-indazol-1-yl)pyridin-2-yl)methanol]
–	≤ 1000	CCC[C@H](N)c1cccc(-c2cc(C3=CCN(C)CC3)c3cnn(-c4cccc(CO)n4)c3c2)n1 [Example 423, (S)-(6-(6-(6-(1-aminobutyl)pyridin-2-yl)-4-(1-methyl-1,2,3,6-tetrahydropyridin-4-yl)-1H-indazol-1-yl)pyridin-2-yl)methanol]
–	≤ 1000	C[C@H](N)c1cccc(-c2cc(F)c3cnn(-c4cccc(CO)n4)c3c2)n1 [Example 475, (6-{6-[6-((S)-1-Amino-ethyl)-pyridin-2-yl]-4-fluoro-indazol-1-yl}-pyridin-2-yl)-methanol]
< 100	–	CCC[C@H](N)c1cccc(-c2cc(COC(F)(F)F)c3cnn(-c4cccc(CO)n4)c3c2)n1 [Example 579, (S)-(6-(6-(6-(1-aminobutyl)pyridin-2-yl)-4-((trifluoromethoxy)methyl)-1H-indazol-1-yl)pyridin-2-yl)methanol]
< 100	–	CCC[C@H](N)c1cccc(-c2cc(-c3ncc(C)o3)c3cnn(-c4cccc(CO)n4)c3c2)n1 [Example 582, (S)-(6-(6-(6-(1-aminobutyl)pyridin-2-yl)-4-(5-methyloxazol-2-yl)-1H-indazol-1-yl)pyridin-2-yl)methanol]
< 100	–	CCC[C@H](N)c1ccnc(-c2cc(OCC)c3cnn(-c4cccc(CO)n4)c3c2)n1 [Example 583, (S)-(6-(6-(4-(1-aminobutyl)pyrimidin-2-yl)-4-ethoxy-1H-indazol-1-yl)pyridin-2-yl)methanol]
< 100	–	CCC[C@@H](N)c1ccnc(-c2cc(OCC)c3cnn(-c4cccc(CO)n4)c3c2)n1 [Example 584, (R)-(6-(6-(4-(1-aminobutyl)pyrimidin-2-yl)-4-ethoxy-1H-indazol-1-yl)pyridin-2-yl)methanol]
100 to 1000	–	CCC[C@H](N)c1cccc(-c2cc(C(CO)CCl)c3cnn(-c4cccc(CO)n4)c3c2)n1 (stereo partly drawn) [Example 585, 2-(6-(6-((S)-1-aminobutyl)pyridin-2-yl)-1-(6-(hydroxymethyl)pyridin-2-yl)-1H-indazol-4-yl)-3-chloropropan-1-ol]
< 100	–	COCCOc1cc(-c2cccc([C@H](C)N)n2)cc2c1cnn2-c1cccc(CO)n1 [Example 586, (S)-(6-(6-(6-(1-aminoethyl)pyridin-2-yl)-4-(2-methoxyethoxy)-1H-indazol-1-yl)pyridin-2-yl)methanol]
< 100	–	CC[C@H](N)c1cccc(-c2cc(OCCOC)c3cnn(-c4cccc(CO)n4)c3c2)n1 [Example 587, (S)-(6-(6-(6-(1-aminopropyl)pyridin-2-yl)-4-(2-methoxyethoxy)-1H-indazol-1-yl)pyridin-2-yl)methanol]
< 100	–	COCCOc1cc(-c2cccc([C@@H](N)C3CC3)n2)cc2c1cnn2-c1cccc(CO)n1 [Example 588, (S)-(6-(6-(6-(amino(cyclopropyl)methyl)pyridin-2-yl)-4-(2-methoxyethoxy)-1H-indazol-1-yl)pyridin-2-yl)methanol]
< 100	–	N#CCC[C@H](N)c1cccc(-c2ccc3cnn(-c4cccc(CO)n4)c3c2)n1 [Example 592, (S)-4-amino-4-(6-(1-(6-(hydroxymethyl)pyridin-2-yl)-1H-indazol-6-yl)pyridin-2-yl)butanenitrile]
< 100	–	CCC[C@H](N)c1cccc(-c2cc(C3CCOC3)c3cnn(-c4cccc(CO)n4)c3c2)n1 (stereo partly drawn) [Example 597, (6-(6-(6-((S)-1-aminobutyl)pyridin-2-yl)-4-(tetrahydrofuran-3-yl)-1H-indazol-1-yl)pyridin-2-yl)methanol]
< 100	–	CCC[C@H](N)c1cccc(-c2cc(OCC3CC(F)(F)C3)c3cnn(-c4cccc(CO)n4)c3c2)n1 [Example 598, (S)-(6-(6-(6-(1-aminobutyl)pyridin-2-yl)-4-((3,3-difluorocyclobutyl)methoxy)-1H-indazol-1-yl)pyridin-2-yl)methanol]

Further lines, the compound ahead of its results:

SMILES	IC50 (IRAK4) [nM]	EC50 (IL-6 in A549 cells) [nM]
CC(O)c1cccc(-n2ncc3ccc(-c4cccc([C@H](C)N)n4)cc32)n1 (single isomer, unassigned) [Example 415]	100 to 1000	≤ 1000
CC(O)c1cccc(-n2ncc3ccc(-c4cccc([C@H](C)N)n4)cc32)n1 (single isomer, unassigned) [Example 416]	< 100	≤ 1000
CCC[C@H](N)c1cccc(-c2ccc3cnn(-c4cccc(C(C)O)n4)c3c2)n1 (single isomer, unassigned) [Example 418]	< 100	≤ 1000
CCCC(N)c1cccc(-c2ccc3cnn(-c4cccc(C(F)F)n4)c3c2)n1 (stereo in doubt) [Example 519, (S)-1-(6-(1-(6-(difluoromethyl)pyridin-2-yl)-1H-indazol-6-yl)pyridin-2-yl)butan-1-amine]	< 100	≤ 1000
CC(N)c1cccc(-c2ccc3cnn(-c4cccc(C(F)F)n4)c3c2)n1 (stereo in doubt) [Example 529, (S)-1-(6-(1-(6-(difluoromethyl)pyridin-2-yl)-1H-indazol-6-yl)pyridin-2-yl)ethanamine]	< 100	≤ 1000
CCc1cccc(-c2cc(-c3nnc(C)o3)c3cnn(-c4cccc(CO)n4)c3c2)n1 [Example 358, (6-(6-(6-ethylpyridin-2-yl)-4-(5-methyl-1,3,4-oxadiazol-2-yl)-1H-indazol-1-yl)pyridin-2-yl)methanol]	–	≤ 1000
CCC(O)C(N)c1cccc(-c2ccc3cnn(-c4cccc(CO)n4)c3c2)n1 (centres unmarked) [Example 516, 1-amino-1-(6-(1-(6-(hydroxymethyl)pyridin-2-yl)-1H-indazol-6-yl)pyridin-2-yl)butan-2-ol]	–	≤ 1000
CC(O)CC(N)c1cccc(-c2ccc3cnn(-c4cccc(CO)n4)c3c2)n1 (centres unmarked) [Example 525, 4-amino-4-(6-(1-(6-(hydroxymethyl)pyridin-2-yl)-1H-indazol-6-yl)pyridin-2-yl)butan-2-ol]	–	≤ 1000
CCCC[C@H](N)c1ccnc(-c2ccc3cnn(-c4cccc(CO)n4)c3c2)n1 [Example 580, (S)-(6-(6-(4-(1-aminopentyl)pyrimidin-2-yl)-1H-indazol-1-yl)pyridin-2-yl)methanol]	< 100	–
N#CC[C@@H](N)c1cccc(-c2ccc3cnn(-c4cccc(CO)n4)c3c2)n1 [Example 581, (R)-3-amino-3-(6-(1-(6-(hydroxymethyl)pyridin-2-yl)-1H-indazol-6-yl)pyridin-2-yl)propanenitrile]	100 to 1000	–
N[C@@H](CF)c1cccc(-c2ccc3cnn(-c4cccc(CO)n4)c3c2)n1 [Example 589, (R)-(6-(6-(6-(1-amino-2-fluoroethyl)pyridin-2-yl)-1H-indazol-1-yl)pyridin-2-yl)methanol]	< 100	–
CCC[C@H](N)c1cccc(-c2ccc3cnn(-c4cncc(C)n4)c3c2)n1 [Example 590, (S)-1-(6-(1-(6-methylpyrazin-2-yl)-1H-indazol-6-yl)pyridin-2-yl)butan-1-amine]	< 100	–
N#CC[C@H](N)c1cccc(-c2ccc3cnn(-c4cccc(CO)n4)c3c2)n1 [Example 591, (S)-3-amino-3-(6-(1-(6-(hydroxymethyl)pyridin-2-yl)-1H-indazol-6-yl)pyridin-2-yl)propanenitrile]	< 100	–
COCCOc1cc(-c2cccc([C@@H](N)CF)n2)cc2c1cnn2-c1cccc(CO)n1 [Example 594, (R)-(6-(6-(6-(1-amino-2-fluoroethyl)pyridin-2-yl)-4-(2-methoxyethoxy)-1H-indazol-1-yl)pyridin-2-yl)methanol]	< 100	–
CCC[C@H](N)c1ccnc(-c2cc(OCCOC)c3cnn(-c4cccc(CO)n4)c3c2)n1 [Example 595, (S)-(6-(6-(4-(1-aminobutyl)pyrimidin-2-yl)-4-(2-methoxyethoxy)-1H-indazol-1-yl)pyridin-2-yl)methanol]	< 100	–
CCC[C@@H](N)c1ccnc(-c2cc(OCCOC)c3cnn(-c4cccc(CO)n4)c3c2)n1 [Example 596, (R)-(6-(6-(4-(1-aminobutyl)pyrimidin-2-yl)-4-(2-methoxyethoxy)-1H-indazol-1-yl)pyridin-2-yl)methanol]	< 100	–
